Results as given in BindingDB's records for doi:10.1021/jm960416g (Universidad Complutense, 1996).
Blank lines part the entries; values can stand above or below the compound they belong to.

How the values were obtained:
D(2) dopamine receptor = D(2) dopamine receptor (Rattus norvegicus, UniProt P61169); experiment: Binding affinity towards dopamine receptor D2 using [3H]-raclopride radioligand.
[1] = target: T1, 5-hydroxytryptamine receptor 1A (Rattus norvegicus, UniProt P19327); experiment: Binding affinity towards rat 5-hydroxytryptamine 1A receptor using [3H]8-OH-DPAT radioligand.
T1 sequence (P19327 whole entry): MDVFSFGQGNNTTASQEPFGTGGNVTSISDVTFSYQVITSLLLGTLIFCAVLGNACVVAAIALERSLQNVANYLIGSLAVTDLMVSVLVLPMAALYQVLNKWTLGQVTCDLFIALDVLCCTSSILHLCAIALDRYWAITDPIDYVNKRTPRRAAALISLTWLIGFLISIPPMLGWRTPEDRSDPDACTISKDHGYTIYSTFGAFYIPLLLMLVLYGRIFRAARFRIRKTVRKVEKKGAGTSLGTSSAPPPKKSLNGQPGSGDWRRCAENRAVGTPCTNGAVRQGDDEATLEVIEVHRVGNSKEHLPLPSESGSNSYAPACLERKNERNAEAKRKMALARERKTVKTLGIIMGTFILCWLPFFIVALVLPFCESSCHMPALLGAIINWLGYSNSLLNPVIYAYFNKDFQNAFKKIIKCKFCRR

Chain of D(2) dopamine receptor (P61169 whole entry): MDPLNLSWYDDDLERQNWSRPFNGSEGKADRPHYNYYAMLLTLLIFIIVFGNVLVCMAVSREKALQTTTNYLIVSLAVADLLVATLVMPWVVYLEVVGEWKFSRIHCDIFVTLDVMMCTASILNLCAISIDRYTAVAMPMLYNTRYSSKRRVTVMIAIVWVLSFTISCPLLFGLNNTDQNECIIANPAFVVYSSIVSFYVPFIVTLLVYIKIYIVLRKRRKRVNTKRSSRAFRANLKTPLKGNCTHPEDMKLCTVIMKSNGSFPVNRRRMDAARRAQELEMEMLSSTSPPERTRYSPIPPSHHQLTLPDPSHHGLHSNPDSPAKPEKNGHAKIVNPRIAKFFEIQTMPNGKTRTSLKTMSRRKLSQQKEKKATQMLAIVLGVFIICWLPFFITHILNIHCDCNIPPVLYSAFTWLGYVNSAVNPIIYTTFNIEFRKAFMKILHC

Compound: O=c1n(CCCN2CCN(c3cccc(Cl)c3)CC2)c(O)c2n1CCCC2 [2-{3-[4-(3-Chloro-phenyl)-piperazin-1-yl]-propyl}-tetrahydro-imidazo[1,5-a]pyridine-1,3-dione]
Ki (D(2) dopamine receptor): > 1 µM

Compound: O=c1n(CN2CCN(c3cccc(Cl)c3)CC2)c(O)c2n1CCCC2 [2-[4-(3-Chloro-phenyl)-piperazin-1-ylmethyl]-tetrahydro-imidazo[1,5-a]pyridine-1,3-dione]
Ki (D(2) dopamine receptor): > 10 µM

Compound: O=c1n(CCCCN2CCN(c3ccc([N+](=O)[O-])cc3)CC2)c(O)c2n1CCC2
Ki (D(2) dopamine receptor): > 1 µM
Ki [1]: > 1 µM

Compound: O=c1n(CCCN2CCN(c3ccc(F)cc3)CC2)c(O)c2n1CCC2 [2-{3-[4-(4-Fluoro-phenyl)-piperazin-1-yl]-propyl}-tetrahydro-pyrrolo[1,2-c]imidazole-1,3-dione]
Ki (D(2) dopamine receptor): > 1 µM
Ki [1]: > 1 µM

Compound: O=c1n(CN2CCN(c3cccc(Cl)c3)CC2)c(O)c2n1CCC2 [2-[4-(3-Chloro-phenyl)-piperazin-1-ylmethyl]-tetrahydro-pyrrolo[1,2-c]imidazole-1,3-dione]
Ki (D(2) dopamine receptor): > 10 µM

Compound: O=c1n(CCN2CCN(c3ccccc3)CC2)c(O)c2n1CCC2 [2-[2-(4-Phenyl-piperazin-1-yl)-ethyl]-tetrahydro-pyrrolo[1,2-c]imidazole-1,3-dione]
Ki (D(2) dopamine receptor): > 1 µM
Ki [1]: > 1 µM

Compound: O=c1n(CN2CCN(c3ccc([N+](=O)[O-])cc3)CC2)c(O)c2n1CCCC2 [2-[4-(4-Nitro-phenyl)-piperazin-1-ylmethyl]-tetrahydro-imidazo[1,5-a]pyridine-1,3-dione]
Ki (D(2) dopamine receptor): > 10 µM
Ki [1]: > 1 µM

Compound: O=c1n(CCCN2CCN(c3ccc([N+](=O)[O-])cc3)CC2)c(O)c2n1CCCC2 [2-{3-[4-(4-Nitro-phenyl)-piperazin-1-yl]-propyl}-tetrahydro-imidazo[1,5-a]pyridine-1,3-dione]
Ki (D(2) dopamine receptor): > 10 µM
Ki [1]: > 10 µM

Compound: O=c1n(CN2CCN(c3ccc(F)cc3)CC2)c(O)c2n1CCCC2 [2-[4-(4-Fluoro-phenyl)-piperazin-1-ylmethyl]-tetrahydro-imidazo[1,5-a]pyridine-1,3-dione]
Ki (D(2) dopamine receptor): > 10 µM

Compound: O=c1n(CCCCN2CCN(c3ccccc3)CC2)c(O)c2n1CCCC2 [2-[4-(4-Phenyl-piperazin-1-yl)-butyl]-tetrahydro-imidazo[1,5-a]pyridine-1,3-dione]
Ki (D(2) dopamine receptor): > 1 µM

Compound: O=c1n(CN2CCN(c3ccccc3)CC2)c(O)c2n1CCC2 [2-(4-Phenyl-piperazin-1-ylmethyl)-tetrahydro-pyrrolo[1,2-c]imidazole-1,3-dione]
Ki (D(2) dopamine receptor): > 10 µM

Compound: O=c1n(CCCN2CCN(c3ccccc3)CC2)c(O)c2n1CCC2 [2-[3-(4-Phenyl-piperazin-1-yl)-propyl]-tetrahydro-pyrrolo[1,2-c]imidazole-1,3-dione]
Ki (D(2) dopamine receptor): > 1 µM

Compound: O=c1n(CCN2CCN(c3ccc([N+](=O)[O-])cc3)CC2)c(O)c2n1CCCC2 [2-{2-[4-(4-Nitro-phenyl)-piperazin-1-yl]-ethyl}-tetrahydro-imidazo[1,5-a]pyridine-1,3-dione]
Ki (D(2) dopamine receptor): > 10 µM
Ki [1]: > 10 µM

Compound: O=c1n(CCCCN2CCN(c3ccc(F)cc3)CC2)c(O)c2n1CCC2 [2-{4-[4-(4-Fluoro-phenyl)-piperazin-1-yl]-butyl}-tetrahydro-pyrrolo[1,2-c]imidazole-1,3-dione]
Ki (D(2) dopamine receptor): > 1 µM

Compound: O=c1n(CCCCN2CCN(c3ccc([N+](=O)[O-])cc3)CC2)c(O)c2n1CCCC2 [2-{4-[4-(4-Nitro-phenyl)-piperazin-1-yl]-butyl}-tetrahydro-imidazo[1,5-a]pyridine-1,3-dione]
Ki (D(2) dopamine receptor): > 1 µM
Ki [1]: > 1 µM

Compound: O=c1n(CCN2CCN(c3cccc(C(F)(F)F)c3)CC2)c(O)c2n1CCC2 [2-{2-[4-(3-Trifluoromethyl-phenyl)-piperazin-1-yl]-ethyl}-tetrahydro-pyrrolo[1,2-c]imidazole-1,3-dione]
Ki (D(2) dopamine receptor): > 1 µM

Compound: O=c1n(CN2CCN(c3ccccc3)CC2)c(O)c2n1CCCC2 [2-(4-Phenyl-piperazin-1-ylmethyl)-tetrahydro-imidazo[1,5-a]pyridine-1,3-dione]
Ki (D(2) dopamine receptor): > 10 µM

Compound: O=c1n(CCN2CCN(c3ccc(F)cc3)CC2)c(O)c2n1CCC2 [2-{2-[4-(4-Fluoro-phenyl)-piperazin-1-yl]-ethyl}-tetrahydro-pyrrolo[1,2-c]imidazole-1,3-dione]
Ki (D(2) dopamine receptor): > 10 µM
Ki [1]: > 10 µM

Compound: O=c1n(CCCN2CCN(c3ccccc3)CC2)c(O)c2n1CCCC2 [2-[3-(4-Phenyl-piperazin-1-yl)-propyl]-tetrahydro-imidazo[1,5-a]pyridine-1,3-dione]
Ki (D(2) dopamine receptor): > 1 µM

Compound: COc1ccccc1N1CCN(CCCn2c(O)c3n(c2=O)CCC3)CC1 [2-{3-[4-(2-Methoxy-phenyl)-piperazin-1-yl]-propyl}-tetrahydro-pyrrolo[1,2-c]imidazole-1,3-dione]
Ki (D(2) dopamine receptor): > 1 µM

Compound: COc1ccccc1N1CCN(CCCCn2c(O)c3n(c2=O)CCCC3)CC1 [2-{4-[4-(2-Methoxy-phenyl)-piperazin-1-yl]-butyl}-tetrahydro-imidazo[1,5-a]pyridine-1,3-dione]
Ki (D(2) dopamine receptor): > 1 µM

Compound: O=c1n(CCN2CCN(c3ccc(F)cc3)CC2)c(O)c2n1CCCC2 [2-{2-[4-(4-Fluoro-phenyl)-piperazin-1-yl]-ethyl}-tetrahydro-imidazo[1,5-a]pyridine-1,3-dione]
Ki (D(2) dopamine receptor): > 10 µM
Ki [1]: > 10 µM

Compound: O=c1n(CCCN2CCN(c3ccc([N+](=O)[O-])cc3)CC2)c(O)c2n1CCC2 [2-{3-[4-(4-Nitro-phenyl)-piperazin-1-yl]-propyl}-tetrahydro-pyrrolo[1,2-c]imidazole-1,3-dione]
Ki (D(2) dopamine receptor): > 10 µM
Ki [1]: > 10 µM

Compound: COc1ccccc1N1CCN(Cn2c(O)c3n(c2=O)CCC3)CC1 [2-[4-(2-Methoxy-phenyl)-piperazin-1-ylmethyl]-tetrahydro-pyrrolo[1,2-c]imidazole-1,3-dione]
Ki (D(2) dopamine receptor): > 1 µM

Compound: O=c1n(CCCN2CCN(c3cccc(Cl)c3)CC2)c(O)c2n1CCC2 [2-{3-[4-(3-Chloro-phenyl)-piperazin-1-yl]-propyl}-tetrahydro-pyrrolo[1,2-c]imidazole-1,3-dione]
Ki (D(2) dopamine receptor): > 1 µM

Further lines, results first:

Ki (D(2) dopamine receptor): > 10 µM
Compound: O=c1n(CN2CCN(c3ccc(F)cc3)CC2)c(O)c2n1CCC2 [2-[4-(4-Fluoro-phenyl)-piperazin-1-ylmethyl]-tetrahydro-pyrrolo[1,2-c]imidazole-1,3-dione]

Ki (D(2) dopamine receptor): > 1 µM
Compound: O=c1n(CCN2CCN(c3cccc(Cl)c3)CC2)c(O)c2n1CCCC2 [2-{2-[4-(3-Chloro-phenyl)-piperazin-1-yl]-ethyl}-tetrahydro-imidazo[1,5-a]pyridine-1,3-dione]

Ki (D(2) dopamine receptor): > 1 µM
Compound: O=c1n(CCCN2CCN(c3cccc(C(F)(F)F)c3)CC2)c(O)c2n1CCCC2 [2-{3-[4-(3-Trifluoromethyl-phenyl)-piperazin-1-yl]-propyl}-tetrahydro-imidazo[1,5-a]pyridine-1,3-dione]

Ki (D(2) dopamine receptor): > 1 µM
Compound: O=c1n(CN2CCN(c3cccc(C(F)(F)F)c3)CC2)c(O)c2n1CCC2 [2-[4-(3-Trifluoromethyl-phenyl)-piperazin-1-ylmethyl]-tetrahydro-pyrrolo[1,2-c]imidazole-1,3-dione]

Ki (D(2) dopamine receptor): > 1 µM
Compound: O=c1n(CCCN2CCN(c3ccc(F)cc3)CC2)c(O)c2n1CCCC2

Ki (D(2) dopamine receptor): > 10 µM
Ki [1]: > 1 µM
Compound: O=c1n(CN2CCN(c3ccc([N+](=O)[O-])cc3)CC2)c(O)c2n1CCC2 [2-[4-(4-Nitro-phenyl)-piperazin-1-ylmethyl]-tetrahydro-pyrrolo[1,2-c]imidazole-1,3-dione]

Ki (D(2) dopamine receptor): > 1 µM
Compound: O=c1n(CCN2CCN(c3cccc(C(F)(F)F)c3)CC2)c(O)c2n1CCCC2 [2-{2-[4-(3-Trifluoromethyl-phenyl)-piperazin-1-yl]-ethyl}-tetrahydro-imidazo[1,5-a]pyridine-1,3-dione]

Ki (D(2) dopamine receptor): > 1 µM
Compound: COc1ccccc1N1CCN(CCCn2c(O)c3n(c2=O)CCCC3)CC1 [2-{3-[4-(2-Methoxy-phenyl)-piperazin-1-yl]-propyl}-tetrahydro-imidazo[1,5-a]pyridine-1,3-dione]

Ki (D(2) dopamine receptor): > 1 µM
Compound: O=c1n(CCCN2CCN(c3cccc(C(F)(F)F)c3)CC2)c(O)c2n1CCC2 [2-{3-[4-(3-Trifluoromethyl-phenyl)-piperazin-1-yl]-propyl}-tetrahydro-pyrrolo[1,2-c]imidazole-1,3-dione]

Ki (D(2) dopamine receptor): > 1 µM
Compound: O=c1n(CCCCN2CCN(c3cccc(C(F)(F)F)c3)CC2)c(O)c2n1CCC2 [2-{4-[4-(3-Trifluoromethyl-phenyl)-piperazin-1-yl]-butyl}-tetrahydro-pyrrolo[1,2-c]imidazole-1,3-dione]

Ki (D(2) dopamine receptor): > 1 µM
Compound: O=c1n(CN2CCN(c3cccc(C(F)(F)F)c3)CC2)c(O)c2n1CCCC2 [2-[4-(3-Trifluoromethyl-phenyl)-piperazin-1-ylmethyl]-tetrahydro-imidazo[1,5-a]pyridine-1,3-dione]

Ki (D(2) dopamine receptor): > 1 µM
Compound: O=c1n(CCN2CCN(c3cccc(Cl)c3)CC2)c(O)c2n1CCC2 [2-{2-[4-(3-Chloro-phenyl)-piperazin-1-yl]-ethyl}-tetrahydro-pyrrolo[1,2-c]imidazole-1,3-dione]

Ki (D(2) dopamine receptor): > 10 µM
Ki [1]: > 10 µM
Compound: O=c1n(CCN2CCN(c3ccc([N+](=O)[O-])cc3)CC2)c(O)c2n1CCC2 [2-{2-[4-(4-Nitro-phenyl)-piperazin-1-yl]-ethyl}-tetrahydro-pyrrolo[1,2-c]imidazole-1,3-dione]

Ki (D(2) dopamine receptor): > 1 µM
Ki [1]: > 1 µM
Compound: O=c1n(CCN2CCN(c3ccccc3)CC2)c(O)c2n1CCCC2 [2-[2-(4-Phenyl-piperazin-1-yl)-ethyl]-tetrahydro-imidazo[1,5-a]pyridine-1,3-dione]

Ki (D(2) dopamine receptor): > 10 µM
Compound: COc1ccccc1N1CCN(Cn2c(O)c3n(c2=O)CCCC3)CC1 [2-[4-(2-Methoxy-phenyl)-piperazin-1-ylmethyl]-tetrahydro-imidazo[1,5-a]pyridine-1,3-dione]
